# Source: patent US12600731B2, “Isoxazolo[5,4-H]quinazoline compounds as protein kinase inhibitors” (CHENGDU CYNOGEN BIO-PHARMACEUTICAL TECHNOLOGY CO., LTD., priority 2019, dated 2026)
# What was measured:
# Format in all cases: biochemical
# CDK2/Cyclin A2 = CDK2/Cyclin A2 (Homo sapiens, UniProt P24941); assay: Kinase activity assay, CDK2/Cyclin A2 (tested in a similar manner); settings: tested in a similar manner to CDK4/cyclin D3
# Method: (§1) The inhibitory effect of compounds against the kinase CDK4/cyclin D3 was detected by Caliper Mobility Shift Assay method. The final concentration of the compounds to be tested was set at 10 concentrations starting from 1 μM by 3-fold serial dilution. 5 μL of compounds at 5-fold final concentration and 10 μL of CDK4/cyclin D3 kinase solution at a final concentration of 10 nM was added to a 384-well reaction plate, respectively. The plate was pre-incubated for 10 min at room temperature (with negative control wells containing 10 μL of kinase buffer and 5 μL of 5% DMSO; positive control wells containing 10 μL of kinase solution and 5 μL of 5% DMSO). The reaction was initiated by adding 10 μL of ATP at a final concentration of 250 μM and the corresponding substrate peptide mixture at room temperature for 150 minutes. 30 μL of stop detection solution containing EDTA was added to stop the kinase reaction. Caliper EZ Reader was used to read the conversion rate. Inhibition rate %=(average conversion rate of positive control %−conversion rate of sample %)/(average conversion rate of positive control %−average conversion rate of negative control %). wherein: negative control wells represent the conversion rate readings of wells without enzymatic activity; positive control wells represent conversion readings for wells with no compound inhibition. The log(inhibitor) vs. response—Variable slope of the analysis software GraphPad Prism 5 was used with log concentration value as the X-axis and the percent inhibition rate as the Y-axis to fit the dose-response curve, the IC50 value of each compound on the enzyme activity was thus obtained. Calculation formula: Y=Bottom+(Top−Bottom)/(1+10^((Log IC50−X)*HillSlope)).
# (§2) The IC50 values for CDK6/Cyclin D3 and CDK2/Cyclin A2 of compounds of the present disclosure were tested in a similar manner.
# CDK4/cyclin D3 = CDK4/cyclin D3 (Homo sapiens, UniProt P11802); assay: Kinase activity assay, Caliper Mobility Shift Assay, CDK4/cyclin D3; settings: 10 nM kinase, ATP 250 μM, 150 minutes at room temperature
# Chain of CDK4/cyclin D3 (P11802 whole entry, species assumed): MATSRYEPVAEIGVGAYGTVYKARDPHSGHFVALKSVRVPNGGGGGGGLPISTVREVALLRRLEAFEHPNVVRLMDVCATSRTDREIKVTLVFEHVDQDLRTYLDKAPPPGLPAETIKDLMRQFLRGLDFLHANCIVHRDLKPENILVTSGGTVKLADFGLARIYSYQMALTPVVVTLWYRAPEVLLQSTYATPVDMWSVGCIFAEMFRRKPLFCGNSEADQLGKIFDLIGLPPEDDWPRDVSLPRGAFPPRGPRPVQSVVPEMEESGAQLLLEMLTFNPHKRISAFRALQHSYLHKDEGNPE
# Chain of CDK4/cyclin D3 (P30281 whole entry partner, species assumed): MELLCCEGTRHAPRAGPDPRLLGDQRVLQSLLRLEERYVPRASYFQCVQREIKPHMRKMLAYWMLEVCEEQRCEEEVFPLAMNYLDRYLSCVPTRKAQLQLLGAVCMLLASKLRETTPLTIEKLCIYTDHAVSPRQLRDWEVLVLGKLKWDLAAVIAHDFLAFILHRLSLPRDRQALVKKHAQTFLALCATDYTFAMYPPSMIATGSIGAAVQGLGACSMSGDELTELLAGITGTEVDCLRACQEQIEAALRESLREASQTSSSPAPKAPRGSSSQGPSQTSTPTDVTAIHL
# Method: as §1
# CDK6/Cyclin D3 = CDK6/Cyclin D3 (Homo sapiens, UniProt Q00534); assay: Kinase activity assay, CDK6/Cyclin D3 (tested in a similar manner); settings: tested in a similar manner to CDK4/cyclin D3
# Chain of CDK6/Cyclin D3 (Q00534 whole entry, species assumed): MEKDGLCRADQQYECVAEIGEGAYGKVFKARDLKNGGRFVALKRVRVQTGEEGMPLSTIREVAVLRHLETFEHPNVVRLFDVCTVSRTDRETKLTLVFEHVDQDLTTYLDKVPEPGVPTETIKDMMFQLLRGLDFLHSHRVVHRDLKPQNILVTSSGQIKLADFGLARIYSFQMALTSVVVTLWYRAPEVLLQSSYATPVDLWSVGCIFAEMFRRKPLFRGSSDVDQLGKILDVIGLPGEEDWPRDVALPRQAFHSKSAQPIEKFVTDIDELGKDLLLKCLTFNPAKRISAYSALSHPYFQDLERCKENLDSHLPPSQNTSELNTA
# Chain of CDK6/Cyclin D3 (P30281 whole entry partner, species assumed): as the sequence (P30281 whole entry partner, species assumed) above
# Method: as §1, §2
Compound,IC50 (CDK2/Cyclin A2) [nM],IC50 (CDK4/cyclin D3) [nM],IC50 (CDK6/Cyclin D3) [nM]
"CC(C)c1noc2ccc3cnc(Nc4ccc(N5CCOCC5)cc4F)nc3c12 [Compound I-32, N-(2-fluoro-4-morpholinophenyl)-9-isopropylisoxazolo[5,4-h] quinazolin-2-amine]",294,150,359
"CC(C)c1noc2ccc3cnc(Nc4ccc(N5CCNCC5)c(F)c4)nc3c12 [Compound I-33, N-(3-fluoro-4-(piperazin-1-yl)phenyl)-9-isopropylisoxazolo[5,4-H] quinazolin-2-amine]",10,3,7
CC(C)c1noc2ccc3cnc(Nc4ccc(N5CCN(C)CC5)c(F)c4)nc3c12 [Compound I-34],12,3,9
"CCN1CCN(c2ccc(Nc3ncc4ccc5onc(C(C)C)c5c4n3)cc2F)CC1 [Compound I-35, N-(4-(4-ethylpiperazin-1-yl)-3-fluorophenyl)-9-isopropylisoxazolo[5,4-H]quinazolin-2-amine]",10,3,8
"CC(C)c1noc2ccc3cnc(Nc4ccc(N5CCOCC5)c(F)c4)nc3c12 [Compound I-36, N-(3-fluoro-4-morpholinophenyl)-9-isopropylisoxazolo[5,4-H] quinazolin-2-amine]",22,20,34
"COc1ccc2cc(Nc3ncc4ccc5onc(C(C)C)c5c4n3)ccc2n1 [Compound I-37, 9-isopropyl-N-(2-methoxyquinolin-6-yl)isoxazolo[5,4-H]quinazolin-2-amine]",82,34,68
"CC(C)c1noc2c1-c1nc(Nc3ccc(N4CCNCC4)c(F)c3)ncc1CC2 [Compound I-38, N-(3-fluoro-4-(piperazin-1-yl)phenyl)-9-isopropyl-5,6-dihydroisoxazolo[5,4-H] quinazolin-2-amine]",10,7,21
"CC(C)c1noc2c1-c1nc(Nc3ccc(N4CCN(C)CC4)c(F)c3)ncc1CC2 [Compound I-39, N-(3-fluoro-4-(4-methylpiperazin-1-yl)phenyl)-9-isopropyl-5,6-dihydroisoxazolo[5,4-H]quinazolin-2-amine]",11,6,17
"CC(C)c1noc2ccc3cnc(Nc4cccc(S(N)(=O)=O)c4)nc3c12 [Compound I-40, 3-((9-isopropylisoxazolo[5,4-h]quinazolin-2-yl)amino)benzenesulfonamide]",10,2,6
"CC(C)c1noc2ccc3cnc(Nc4ccc(N(CCN5CCOCC5)S(C)(=O)=O)cc4)nc3c12 [Compound I-41, N-(4-((9-isopropylisoxazolo[5,4-H]quinazolin-2-yl)amino)phenyl)-N-(2-morpholinoethyl) methanesulfonamide]",12,2,7
"CC(C)c1noc2ccc3cnc(Nc4ccc(C(=O)N5CCNCC5)cc4)nc3c12 [Compound I-42, (4-((9-isopropylisoxazolo[5,4-H]quinazolin-2-yl)amino)phenyl) (piperazin-1-yl)methanone]",5,3,9
"CC(C)c1noc2ccc3cnc(Nc4ccc(C(=O)N5CCN(C)CC5)cc4)nc3c12 [Compound I-43, (4-((9-isopropylisoxazolo[5,4-H]quinazolin-2-yl)amino)phenyl) (4-methylpiperazin-1-yl)methanone]",4,1,5
"CC(C)c1noc2ccc3cnc(Nc4ccc(OCCN(C)C)cc4)nc3c12 [Compound I-44, N-(4-(2-(dimethylamino)ethoxy)phenyl)-9-isopropylisoxazolo[5,4-h]quinazolin-2-amine]",10,2,4
